Data from patent US20220378766A1, “[…] OF A GENE ENCODING AN […] BY TREATING A HUMAN SUBJECT WITH A NITROXIDE” (priority 2021, published 2022).

Tested on: UCP3
Experiment: Effects of Tempol on gene expression in mice, chip-based microarray of cardiac tissue
Format: in vivo
Details: Tempol 5 mg/g of food from 14 to 31 months after birth
Description: To assess the effects of Tempol on gene expression, Tempol was administered to experimental mice at a dose of 5 mg/g of food from 14 months to 31 months after birth. Mice receiving the same food without the addition of Tempol were used as a negative control. At the age of 31 months, the experimental animals were sacrificed and the hearts were surgically removed. The expression of a broad spectrum of genes in the cardiac tissue was assessed using chip-based microarray technology. Such chips are well known in the art and are widely used to assess gene expression.

CC1(C)CC(O)CC(C)(C)N1[O] [Tempol, 4-hydroxy-2,2,6,6-tetramethylpiperidine-1-oxyl]
expression of UCP3 (cardiac tissue, microarray): statistically significant increase in expression
Fold change (UCP3 gene expression after Tempol administration) (vs. same food without Tempol, cardiac tissue per text (table title says adipose tissue), P-value 0.00): 1.57
